Reference: PMC12381739, “Druglike Molecular Degraders of the Oncogenic RNA-Binding Protein HuR” (JACS Au, 2025)

Key:
HuR RRM1/2 = biological target: T1, HuR RRM1/2 (Homo sapiens, UniProt Q15717); experiment: Fluorescence polarization (FP) displacement assay, 5′ FAM-labeled RNA probe from HuR; conditions: displacement of 5′-FAM RNA probe UAUUUAUUUA (20 nM) from 500 nM HuR RRM1/2; read-out: Binding affinity towards HuR in FP assay (Kd)
T1 construct: 20 nM of the 5′-FAM RNA probe and 500 nM of HuR RRM1/2
T1 sequence (Q15717 18-186 limits assumed): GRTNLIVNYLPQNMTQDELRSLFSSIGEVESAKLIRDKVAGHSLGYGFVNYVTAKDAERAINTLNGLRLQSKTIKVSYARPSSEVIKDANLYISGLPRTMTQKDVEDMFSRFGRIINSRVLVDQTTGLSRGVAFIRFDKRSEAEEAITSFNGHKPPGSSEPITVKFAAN
Method: Following the synthesis, our initial aim was to ensure that the new derivatives retained their affinity for HuR’s RNA-binding pocket. Thus, a binding evaluation assay was conducted. As previously reported, the RNA-binding pocket of HuR specifically recognizes the UTR sequences of mRNAs, with […] identified as a common binding motif. To evaluate the binding of each degrader, we conducted a fluorescence-based assay utilizing a 5-carboxyfluorescein (5′ FAM)-labeled reporter. This fluorescence polarization (FP) assay is based on the displacement of the 5′ FAM-labeled mRNA from HuR’s RNA-binding pocket, which provides insight into both the binding affinity of the degrader and its capacity to disrupt the HuR-mRNA interaction, thereby serving as a means of validating target engagement. When the 5′ FAM-RNA probe is bound to HuR, it forms a binary complex, resulting in slower rotational movement and a consequently high FP signal. However, when either molecule displaces the 5′ FAM-labeled RNA, the probe is released into the solution, where it undergoes rapid rotation, leading to a significant reduction in the FP signal (Figure S3). This decrease in FP serves as a quantitative measure of the degrader’s ability to compete with mRNA for HuR binding. […] As mentioned above, we synthesized a series of HuR ligand derivatives featuring indole and benzothiophene cores, along with ester and carboxylic acid functional groups.
As previously reported, the sequence of the fluorescently labeled (5′-FAM) RNA probe is […]. The assays were performed in PBS buffer (20 mM sodium phosphate, 150 mM NaCl, 1 mM dithiothreitol, 0.05% PLURONIC-127, 15% DMSO) at 293 K. Fluorescence was measured using the Synergy H1 Hybrid Multi-Mode Microplate Reader (Biotek, Agilent) with excitation and emission wavelengths set to 485 and 528 nm, respectively. Each well of a 384-well plate contained 20 nM of the 5′-FAM RNA probe and 500 nM of HuR RRM1/2. Compounds were tested at eight concentrations (0.1 nM–100 μM), with compound 10 serving as a positive control and PBS as the negative control. The protein-mRNA mixture was incubated for 1.5 h to allow for binding interactions. After this incubation, the compounds were added, and the mixture was incubated for an additional hour. The FP emission of the resulting HuR-compound complex was then recorded. The percent inhibition of binding was calculated by comparing the FP values of experimental conditions to the PBS control. The FP value corresponding to the HuR-RNA complex in the presence of DMSO was used as the 100% complexation reference, while the FP value of the labeled RNA alone was set as 0% complexation. The dissociation constant (K d) for the compound-HuR binding interaction was determined by fitting the dose–response curve to specific binding models using Prism 10.2.2. All experiments were performed in triplicate.

MDA-MB-231 spheroids = experiment: 3D spheroid growth model, MDA-MB-231; format: cell-based, human
Method: (§1) MDA-MB-231 and MCF-7 breast cancer cells were cultured in standard tissue culture plates using RPMI or DMEM media supplemented with 10% fetal bovine serum (FBS) and 1% penicillin–streptomycin until they reached approximately 80% confluency. Cells were washed with PBS and dissociated using 0.25% Trypsin-EDTA, followed by neutralization with complete medium. Viability was assessed via trypan blue exclusion, ensuring >90% viable cells. For spheroid formation, cells were seeded into ultralow attachment 96-well plates at a density of 5000 cells/well in 200 μL of complete medium. Plates were centrifuged at 1000 rpm for 5 min to promote aggregation and incubated at 37 °C in a humidified 5% CO2 atmosphere. Spheroid formation was monitored daily using an inverted microscope. Media exchanges or treatment additions were performed by carefully aspirating 100 μL of medium from each well and replacing it with an equal volume of fresh or treatment-containing medium. Differences in spheroid characteristics between the two cell lines were noted: MCF-7 cells, being epithelial and E-cadherin positive, formed compact, uniform spheroids at lower seeding densities (1000–5000 cells/well) over 3–5 days, whereas MDA-MB-231 cells, which lack E-cadherin, required higher densities (5000–10,000 cells/well) and formed looser aggregates typically within 2–4 days. All experiments were performed in duplicates. Surface area was calculated using Image View’s multipoint connection function.

Bcl2 and FOXQ1 mRNA = experiment: mRNA RT-qPCR of Bcl2 and FOXQ1 in MCF-7 cells; format: cell-based, human; conditions: MCF-7, any of the concentrations evaluated
Method: MCF-7 cells were seeded into 12-well plates (∼150,000 cells per well) at 60–70% confluency incubated for 12 h. The cells were then treated with different synthesized compounds at the indicated concentrations or with vehicle control for 24 and 48 h. After treatment, total RNA was extracted using the QuickRNA Miniprep Kit (Zymo Research) according to the manufacturer’s protocol, including DNase I treatment. Reverse transcription was performed on 1 μg of total RNA using the qScript cDNA Synthesis Kit (Quantabio) following the manufacturer’s instructions. Approximately 30 ng of cDNA were used for each qPCR reaction, which was carried out using the Luna Universal qPCR Master Mix (New England BioLabs, cat# E3010G) on a CFX Opus 384 Real-Time PCR System. Relative expression levels of Bcl-2 and FOXQ1 were calculated by normalizing to GAPDH expression using the ΔΔCt method.

HuR = HuR (Homo sapiens, UniProt Q15717); experiment: HuR protein expression by western blot in MCF-7 cells; format: cell-based; set-up: endogenous in cells; host or cells: MCF-7
Chain of HuR (Q15717 whole entry): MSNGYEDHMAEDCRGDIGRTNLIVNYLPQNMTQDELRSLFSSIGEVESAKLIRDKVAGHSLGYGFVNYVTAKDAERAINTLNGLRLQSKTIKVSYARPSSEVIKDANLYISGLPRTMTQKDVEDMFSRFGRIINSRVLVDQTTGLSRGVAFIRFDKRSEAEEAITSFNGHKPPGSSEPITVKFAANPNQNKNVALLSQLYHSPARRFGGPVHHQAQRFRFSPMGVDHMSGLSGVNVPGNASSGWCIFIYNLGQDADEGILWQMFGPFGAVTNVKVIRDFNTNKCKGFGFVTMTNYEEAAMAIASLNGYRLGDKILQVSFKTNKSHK
Excerpt: Michigan Cancer Foundation-7 (MCF-7) cells were chosen due to their documented overexpression of HuR, which has been linked to cancer pathogenicity in this specific cell line. , Consequently, reducing HuR expression to physiologically normal levels is considered a potential strategy for novel anticancer therapies targeting breast cancers associated with HuR overexpression.
Total protein was extracted using RIPA cell lysis buffer (BioPrep) containing a protease inhibitor, and protein concentration was measured using the BCA protein assay (Sigma-Aldrich) according to the manufacturer’s protocol. Approximately 30 μg of total protein were resolved on a 12% SDS-acrylamide gel and transferred to a PVDF membrane (Immobilon FL transfer membrane; Merck). The membrane was washed with 1× Tris-buffered saline (TBS) containing 0.1% (v/v) Tween-20 (TBST; Tris-base, pH 7.6, NaCl, and Tween-20) and blocked in 1× TBST containing 5% (w/v) BSA for 2 h at room temperature. The membrane was then incubated overnight at 4 °C with primary antibodies: a 1:1000 dilution of rabbit anti-ELAVL1/HuR (Cell Signaling Technology, #12582), a 1:1000 dilution of mouse anti-Bcl2 (Cell Signaling Technology, #15071), or a 1:10,000 dilution of rabbit anti-Vinculin (Cell Signaling Technology, #13901) in 1× TBST containing 5% (w/v) BSA. Following primary antibody incubation, the membrane was washed with 1× TBST and incubated with a 1:10,000 dilution of the appropriate horseradish-peroxidase-conjugated secondary antibody (antirabbit IgG: Cell Signaling, #7074 or antimouse IgG: Cell Signaling, #7076) at room temperature for 2 h. After washing three times with 1X TBST (10 min per wash), protein bands were visualized using Clear Band ECL Substrate (Gene Bio-Application) on the Azure C300 Imaging System. The fold change in the expression of the target proteins (HuR or Bcl2) was calculated by normalizing the band intensity to the Vinculin band intensity using ImageJ.

MCF-7 spheroids = experiment: 3D spheroid growth model, MCF-7; format: cell-based, human
Method: as §1

GFP-HuR = biological target: T2, GFP-HuR (Homo sapiens, UniProt Q15717); experiment: GFP-HuR reporter assay; format: cell-based; conditions: HEK 293 cells, 10 μM, 24 h
T2 construct: host or cells: HEK-293
T2 sequence (Q15717 whole entry): as above
Method: To assess the effects of the HuR degraders in cells in a high-throughput fashion, a GFP-HuR reporter assay was utilized. In this assay, HuR was fused with green fluorescent protein (GFP), facilitating the monitoring of its expression and stability through fluorescence intensity (Figure A). A decrease in the GFP signal indicates HuR degradation.
HEK-293 cells were cultured in 100 mm diameter plates to approximately 70% confluency and transfected with 15 μg of GFP-HuR (ELAVL1) reporter plasmid (Addgene #121162) in a 1:2 ratio with the PEI transfection reagent (Med Chem Express, HY-K2014) at a concentration of 1 mg/mL, following the manufacturer’s recommended protocol. After 6 h of transfection, the cells were reseeded into 96-well plates. […] Fluorescence measurements were taken using the Synergy H1 Hybrid Multi-Mode Microplate Reader (Biotek, Agilent) with excitation and emission wavelengths set to 479 and 520 nm, respectively, according to the manufacturer’s instructions. All experiments were performed in triplicate.

| SMILES | Kd (HuR RRM1/2) [nM] | also measured |
| --- | --- | --- |
| O=C1CCC(N2C(=O)c3cccc(NCCc4cn(CCCC(=O)Nc5ccc6[nH]c(C(=O)O)cc6c5)nn4)c3C2=O)C(=O)N1 (centres unmarked) [PRO-HuR2] | 10.1 | – |
| CCOC(=O)c1cc2cc(N)ccc2[nH]1 [Binder 1] | – | day at which a decrease in spheroid surface area was first observed (MDA-MB-231 spheroids): 9 days; spheroid growth (MDA-MB-231 spheroids; 10 nM): no significant impact on spheroid growth; RNA levels of Bcl2 and FOXQ1 with HuR ligands (Bcl2 and FOXQ1 mRNA): no effect was observed; HuR expression after treatment with HuR ligands alone (HuR; MCF-7, Binder 1 1 µM 24 h, Binder 2 10 µM 48 h (Figure S8)): No significant decrease in HuR expression; day at which a decrease in spheroid surface area was first observed (MCF-7 spheroids): 14 days; spheroid growth (MCF-7 spheroids; 10 nM): no significant impact on spheroid growth |
| O=C1CCC(N2C(=O)c3cccc(NCc4cn(-c5ccc6[nH]c(C(=O)O)cc6c5)nn4)c3C2=O)C(=O)N1 (centres unmarked) [PRO-HuR1] | 9.5 | – |
| CCOC(=O)c1cc2cc(NC(=O)CCC(=O)N3CCN(c4cccc5c4C(=O)N(C4CCC(=O)NC4=O)C5=O)CC3)ccc2s1 (centres unmarked) [PRO-HuR6] | 9390 | – |
| CCOC(=O)c1cc2cc(-n3cc(-c4ccc(C(=O)NCCNc5cccc6c5C(=O)N(C5CCC(=O)NC5=O)C6=O)cc4)nn3)ccc2s1 (centres unmarked) [PRO-HuR7] | 45.8 | – |
| CCOC(=O)c1cc2cc(-n3cc(CNc4cccc5c4C(=O)N(C4CCC(=O)NC4=O)C5=O)nn3)ccc2s1 (centres unmarked) [PRO-HuR4] | 10.6 | time-dependent response of HuR degradation (HuR; MCF-7, 10 μM): did not; HuR degradation ability (HuR; MCF-7, 10 μM, 24 h): higher degradation efficiency |

Continued, in another order:

| Kd (HuR RRM1/2) [nM] | SMILES | also measured |
| --- | --- | --- |
| 1080 | CCOC(=O)c1cc2cc(NC(=O)/C=C/C(=O)c3ccc(OC)cc3)ccc2s1 [MG-HuR1] | – |
| 818 | O=C(/C=C/c1ccc(C(F)(F)F)cc1)Nc1ccc2sc(C(=O)O)cc2c1 [MG-HuR5] | GFP-HuR fluorescence intensity (GFP-HuR): significant reduction in fluorescence intensity |
| 6.5 | CCOC(=O)c1cc2cc(NC(=O)C3CCN(c4cccc5c4C(=O)N(C4CCC(=O)NC4=O)C5=O)CC3)ccc2s1 (centres unmarked) [PRO-HuR5] | – |
| 9.3 | CCOC(=O)c1cc2cc(NC(=O)/C=C/c3ccc(C(F)(F)F)cc3)ccc2[nH]1 [MG-HuR3] | – |
| 1490 | CCOC(=O)c1cc2cc(NC(=O)/C=C/c3ccc(C(F)(F)F)cc3)ccc2s1 [MG-HuR4] | – |
| 6430 | CCOC(=O)c1cc2cc(NC(=O)C3CN(c4cccc5c4C(=O)N(C4CCC(=O)NC4=O)C5=O)C3)ccc2s1 (centres unmarked) [PRO-HuR8] | – |
